Measurements: US9808527B2, “Methods and compositions for treating HIV infections” (priority 2006, dated 2017)
“Also recorded” adds a separate entry of the source. Where two headings read alike, the source gives them in different places.

Tests used:
[1] = tested on: HIV; details: read-out: ID50 (the source's name); cited from earlier work
[2] = target: T1, CFP- and YFP-tagged HIV-1 protease subunits (Human immunodeficiency virus type 1 group M subtype B, UniProt P12497); type: cell-based; details: for dose response of dimerization inhibition: 0.001-10 μM (GRL-0026A 0.1-10 μM), 72 hrs
T1 construct: expressed in transfected cells; host or cells: Cos-7
Method: After 72 hr, cultured cells were examined in the FRET-HIV-1 assay system using confocal microscopy Fluoview FV500 confocal laser scanning microscope, and CFP^A/B were determined and plotted. […] The FRET efficiency was determined following acceptor photobleaching as previously described (Bastiaens et al., EMBO 1996; Siegel et al., Science's stke 2000; Firulli et al., Nature genetics, 2005; Szczesna et al., JBC 2003). Dequenching of the donor CFP by selective photobleaching of the acceptor YFP was performed by first obtaining YFP and CFP images at the same focal plane, followed by illuminating for 3 min the same image at wavelength of 488 nm with a laser power set at the maximum intensity to bleach YFP and re-capturing the same CFP and YFP images. The changes in the CFP and YFP fluorescence intensity in the images of selected regions were examined and quantified using Olympus FV500 Image software system. Background values were obtained from the regions where no cells were present and were subtracted from the values for the cells examined in all calculations. For each chimeric protein, the data were obtained from at least three independent experiments. FRET efficiency was determined using the formula: ET=(1−(IDA/ID))×100, where IDA and ID represent the steady-state donor fluorescence in the presence and absence of the acceptor, respectively. Digitized image data obtained from the experiment were prepared for presentation using Photoshop 6.0 (Adobe systems, Mountain View, Calif.). Ratios of intensities of ECFP fluorescence after photobleaching to ECFP fluorescence prior to photobleaching were determined. The ratios of more than 1 indicate that dimerization of CFP- and YFP-tagged protease subunits occurred and those of less than 1 indicate that dimerization was blocked by the test agent.
Generation of FRET-based HIV-1 expression assay. The basic concepts of the intermolecular fluorescence resonance energy transfer (FRET)-based HIV-1-expression assay (FRET-HIV-1 assay) are shown in FIG. 7. Within a plasmid (pHIV-1NL4-3), which encodes a full-length molecular infectious HIV-1 clone, the gene encoding a cyan fluorescent donor protein (CFP) was attached to the downstream end (C-terminus) of the gene encoding an HIV-1 protease subunit through the flexible linker added (five alanines), generating pHIV-1NL4-3/CFP (FIG. 7A). Within the other plasmid (pHIV-1NL4-3), the gene encoding a yellow fluorescent acceptor protein (YFP) was attached to the downstream end of protease-encoding gene in the same manner, generating pHIV-1NL4-3/YFP. Both CFP and YFP were designed to have phenylalanine and proline in the connection with reverse transcriptase so that the protease is cleaved from reverse transcriptase when two subunits dimerize and the dimerized protease acquires enzymatic activity. […] A focused laser beam excitation of CFP (triggered by Helium-Cadmium laser) results in rapid energy transfer to YFP, and most of the fluorescence photons are emitted by YFP (Miyawaki et al. Nature 388(6645):882-887 (1997)). If the dimerization is blocked, the average distance between CFP and YFP becomes larger and the energy transfer rate is decreased and the fraction of photons emitted by YFP is lowered.
In order to interpret the energy transfer efficiency quantitatively, an acceptor photobleaching technique was used, in which the change in CFP emission quenching is measured by comparing the value before and after selectively photobleaching YFP, which prevents problems associated with variable expression levels.

[3] = tested on: HIV-1LAI; test: MTT assay, MT-2 cells exposed to HIV-1LAI (acute HIV-1 infection assay); type: cell-based
Method: Drug susceptibility assay. The susceptibility of HIV-1LAI, HIV-2EHO, HIV-2ROD, to various drugs and the cytotoxicity of those drugs was determined by using the MTT assay. Briefly, MT-2 cells (2×10^4/mL) were exposed to 100 TCID50s (50% tissue culture infectious doses) of HIV-1LAI, HIV-2EHO, or HIV-2ROD in the presence or absence of various concentrations of drugs in 96-well microculture plates and were incubated at 37° C. for 7 days. After 100 μL of the medium was removed from each well, 3-(4,5-dimethylthiazol-2-yl)-2,5-diphenyltetrazolium bromide (MTT) solution (10 μL, 7.5 mg/mL in phosphate-buffered saline) was added to each well in the plate, followed by incubation at 37° C. for 4 hours. […] All assays were performed in duplicate or triplicate. To determine the sensitivity of HIV-1Ba-L, HIV-1ERS104 pre, and clinical multi-drug-resistant HIV-1 isolates and different subtypes of HIV-1 isolates to drugs, phytohemagglutinin-activated peripheral blood mononuclear cells (PHA-PBMs; 10^6/mL) were exposed to 50 TCID50 (50% tissue infectious dose) of each HIV-1 isolate and cultured in the presence or absence of various concentrations of drugs in 10-fold serial dilutions in 96-well microtiter culture plates. To determine the drug susceptibility of certain laboratory HIV-1 strains (HIV-1NL4-3), MT-4 cells were used as target cells. MT-4 cells (10^5/mL) were exposed to 100 TCID50 of wild type HIV-1NL4-3 and PI-resistant HIV-1NL4-3 in the presence or absence of various concentrations of drugs and were incubated at 37° C. On day 7 of culture, the supernatant was harvested and the amount of p24 Gag protein was determined by using a fully automated chemiluminescent enzyme immunoassay system (Lumipulse F; Fujirebio Inc., Tokyo, Japan) (22). […] All assays were performed in duplicate or triplicate.

[4] = target: T2, HIV-1 protease (Human immunodeficiency virus type 1 group M subtype B, UniProt P04585, C555A/C583A/L521I/L551I/Q495K/V491I); test: biochemical; type: biochemical
T2 construct: Wild-type PR at final concentrations of 160-190 nM were added
Description: Enzyme kinetics. The chromogenic substrate Lys-Ala-Arg-Val-Nle-p-nitroPhe-Glu-Ala-Nle-amide (Sigma, St. Louis, Mo.) was used to determine the kinetic parameters (Kovalevsky et al. J Mol Biol 363(1):161-173 (2006), Ghosh et al. J Med Chem 49(17):5252-5261 (2006)). […] The kcat and Km values were obtained employing standard data fitting techniques for a reaction obeying Michaelis-Menten kinetics. The data curves were fitted using SigmaPlot 8.0.2 (SPSS Inc., Chicago, Ill.). The active enzyme concentrations were calculated from the intercept of the linear fit to the IC50 versus [S] plots with the IC50 axis. The Ki values were obtained from the IC50 values estimated from an inhibitor dose-response curve with the spectroscopic assay using the equation Ki=(IC50-[E]/2)/(1+[S]/Km), where [E] and [S] are the PR and substrate concentrations, respectively (Maibaum & Rich J Med Chem 31(34):625-629 (1988)). The Ki values were measured at four to five substrate concentrations. The measurement was repeated at least three times to produce the average values.

[5] = target: dimerized mature HIV-1 protease (Human immunodeficiency virus type 1 group M subtype B, UniProt P12497); test: Assay for effects on dimerized mature protease (cycloheximide, FRET); type: cell-based; details: 1 μM added on day 5 after cycloheximide 50 μg/ml
Method: […] Cellular protein synthesis was monitored every 24 hours by determining levels of p24 Gag protein produced into culture medium using the fully automated chemiluminescent enzyme immunoassay system (Lumipulse F; Fujirebio Inc., Tokyo, Japan). The cells were exposed to TMC114 (1 μM) on day 5 and beyond of culture and analyzed under Fluoview FV500 confocal laser scanning microscope (OLYMPUS Optical Corp) at room temperature.
When the CFP^A/B ratios determined were greater than 1.0, it was determined that HIV-1 protease had been generated and dimerization had occurred. The production of HIV-1 was monitored every 24 hours following transfection by determining levels of p24 Gag protein produced into culture medium as described by Koh et al. Antimicrob Agents Chemother 47:3123-9 (2003).
Dissociation of already formed dimer. TMC114 was examined for its ability to dissociate the protease once dimerized within cells producing infectious HIV-1 virions. Cos-7 cells were co-transfected with wild-type pNLPR-CFP and -YFP plasmids, exposed to cycloheximide (50 μg/mL) in 24, 48, 72, and 96 hrs of culture and beyond, the cells exposed to 1 μM TMC114 on day 5 of culture and beyond, cellular protein synthesis was monitored every 24 hours by determining levels of p24 Gag protein produced into culture medium, and the values of the ratio were determined at various time points. […]

[6] = Human immunodeficiency virus 1, MT2, 168 h, read-out: IC50 against HIV-1LAI, MT-2 cells, 100 TCID50 of HIV-1LAI, MTT assay on day 7
[7] = Human immunodeficiency virus 1, MT2, 168 h, read-out: MTT assay (IC50, nM), Human CD4+ MT-2 cells, 100 TCID50 of HIV-1LAI, day 7
[8] = MT-2 cells, 100 TCID50 of HIV-1LAI, MTT assay on day 7, read-out: IC50 against HIV-1LAI

Structure (SMILES): CC(C)CN(CC(O)C(Cc1ccccc1)NC(=O)OC1COC2OCCC12)S(=O)(=O)c1ccc(N)cc1 (centres unmarked)
- IC50 [1]: 4.5 nM

Structure (SMILES): Cc1ccc(S(=O)(=O)N(CC(C)C)CC(O)C(Cc2ccccc2)NC(=O)OC2COC3OCCC23)cc1 (centres unmarked)
- IC50 [1]: 3.5 nM

Structure (SMILES): COc1ccc(S(=O)(=O)N(CC(C)C)CC(O)C(Cc2ccccc2)NC(=O)OC2COC3OCCCC23)cc1 (centres unmarked)
- IC50 [1]: 4.5 nM

Structure (SMILES): Nc1nc(NC2CC2)c2ncn([C@H]3C=C[C@@H](CO)C3)c2n1 [ABC, abacavir]
- inhibition of protease dimerization ([2]; 10 μM, Cos-7 cells): failed to inhibit the dimerization
- inhibition of protease dimerization ([2]; 10 μM, Cos-7 cells, listed as abacavir): did not block the dimerization; also recorded: failed to inhibit HIV-1 protease dimerization

Structure (SMILES): Cc1nc(COc2ccc(C[C@H](NC(=O)O[C@H]3CO[C@H]4OCC[C@H]43)[C@H](O)CN(CC(C)C)S(=O)(=O)c3ccc4c(c3)OCO4)cc2)cs1 [BCV, brecanavir]
- IC50 [3, 6]: 0.2 nM
- inhibition of protease dimerization ([2]; 1 μM, Cos-7 cells): disrupt protease dimerization
- dose response of dimerization inhibition [2]: Dose-responsive dimerization inhibition
- Ki [4]: 0.0068 nM

Structure (SMILES): CC(C)CN(C[C@@H](O)[C@H](Cc1ccccc1)NC(=O)O[C@H]1CO[C@H]2OCC[C@H]21)S(=O)(=O)c1ccc(N)cc1 [DRV, darunavir]
- IC50 [3, 6]: 3 nM
- IC50 [3, 7]: ~3 nM
- inhibition of protease dimerization ([2]; 1 μM, Cos-7 cells): disrupt protease dimerization
- inhibition of protease dimerization ([2]; 1 μM, Cos-7 cells, listed as TMC114): dimerization was effectively blocked; also recorded: blocked the dimerization; also recorded: blocked protease dimerization
- concentration effectively blocking FRET / disrupting protease dimerization ([2]; in culture, Cos-7 cells): 0.1 µM
- dissociation of already dimerized protease [5]: failed to dissociate mature protease dimer
- dissociation of already dimerized protease ([5]; listed as TMC114): no inhibition of FRET was detected; also recorded: did not appear to reverse the dimerization

Structure (SMILES): O=C1Nc2ccc(Cl)cc2[C@@](C#CC2CC2)(C(F)(F)F)O1 [EFV, efavirenz]
- inhibition of protease dimerization ([2]; 1 μM, Cos-7 cells): failed to inhibit the dimerization
- inhibition of protease dimerization ([2]; 1 μM, Cos-7 cells, listed as efavirenz): did not block the dimerization; also recorded: failed to inhibit HIV-1 protease dimerization

Structure (SMILES): COc1ccc(S(=O)(=O)N(CC(C)C)C[C@@H](O)[C@H](Cc2ccccc2)NC(=O)C[C@H]2CO[C@H]3OCC[C@@H]23)cc1 [GRL-0026A]
- IC50 [3, 8]: 480 nM
- dose response of dimerization inhibition [2]: Dose-responsive dimerization inhibition

Structure (SMILES): CC(C)CN(C[C@@H](O)[C@H](Cc1ccccc1)NC(=O)O[C@@H]1C[C@@H]2CCO[C@@H]2C1)S(=O)(=O)c1ccc(CO)cc1 [GRL-06579A]
- IC50 [3, 8]: 1 nM
- inhibition of protease dimerization ([2]; 1 μM, Cos-7 cells): dimerization was effectively blocked; also recorded: disrupt protease dimerization
- Ki ([4]; wild-type PR, pH 5.0, read-out: Ki against HIV-1 protease): 0.0035 nM

Structure (SMILES): Cc1ccnc2c1NC(=O)c1cccnc1N2C1CC1 [NVP, nevirapine]
- inhibition of protease dimerization ([2]; 1 μM, Cos-7 cells): failed to inhibit the dimerization
- inhibition of protease dimerization ([2]; 1 μM, Cos-7 cells, listed as nevirapine): did not block the dimerization; also recorded: failed to inhibit HIV-1 protease dimerization

Structure (SMILES): COc1ccc(S(=O)(=O)N(CC(C)C)CC(O)C(Cc2ccccc2)NC(=O)OC2COC3OCCC23)cc1 (centres unmarked) [TMC126]
- IC50 [3, 6]: 0.3 nM
- IC50 [3, 7]: 0.3 nM
- inhibition of protease dimerization ([2]; 1 μM, Cos-7 cells): dimerization was effectively blocked; also recorded: disrupt protease dimerization
- dose response of dimerization inhibition [2]: Dose-responsive dimerization inhibition

Structure (SMILES): CCC[C@@]1(CCc2ccccc2)CC(O)=C([C@H](CC)c2cccc(NS(=O)(=O)c3ccc(C(F)(F)F)cn3)c2)C(=O)O1 [TPV, tipranavir]
- IC50 [3, 6]: 100 nM

Structure (SMILES): CCCCN1C(=O)[C@@H]([C@H](O)C2CCCCC2)NC(=O)C12CCN(Cc1ccc(Oc3ccc(C(=O)O)cc3)cc1)CC2 [aplaviroc]
- inhibition of protease dimerization ([2]; 1 μM, Cos-7 cells): did not block the dimerization; also recorded: failed to inhibit the dimerization; also recorded: failed to inhibit HIV-1 protease dimerization

Structure (SMILES): COc1ccc(S(=O)(=O)N(CC(C)C)CC(O)C(Cc2ccccc2)NC(=O)OC2COC3OCCC23)cc1 (centres unmarked) [drawing 20]
- IC50 [1]: 1.4 nM
